Where two headings read alike, the source gives them in different places.
Assays:
Human mTOR (FLAG-TOR) = target: T1, Human mTOR (FLAG-TOR) (Homo sapiens, UniProt P42345); assay: Human mTOR kinase assay with purified enzyme, DELFIA format; assay type: biochemical
T1 construct: FLAG
Description: Enzymes are first diluted in kinase assay buffer (10 mM HEPES (pH 7.4), 50 mM NaCl, 50 mM β-glycerophosphate, 10 mM MnCl2, 0.5 mM DTT, 0.25 mM microcystin LR, and 100 mg/mL BSA). To each well, 12 μL of the diluted enzyme is mixed briefly with 0.5 μL test inhibitor or control vehicle dimethylsulfoxide (DMSO). […] The reaction plate is incubated for 2 hours (linear at 1-6 hours) at room temperature with gentle shaking and then terminated by adding 25 μL Stop buffer (20 mM HEPES (pH 7.4), 20 mM EDTA, 20 mM EGTA). […] The DELFIA Assay buffer and Enhancement solution can be purchased from PerkinElmer. 45 μL of the terminated kinase reaction mixture is transferred to a MaxiSorp plate (Nunc) containing 55 μL PBS. The His6-S6K is allowed to attach for 2 hours after which the wells are aspirated and washed once with PBS. 100 μL of DELFIA Assay buffer with 40 ng/mL Eu—P(T389)-S6K antibody is added. The antibody binding is continued for 1 hour with gentle agitation. The wells are then aspirated and washed 4 times with PBS containing 0.05% Tween-20 (PBST). 100 μL of DELFIA Enhancement solution is added to each well and the plates are read in a PerkinElmer Victor model plate reader. Data obtained is used to calculate enzymatic activity and enzyme inhibition by potential inhibitors.

PI3K [1] = target: T2, PI3K (Homo sapiens, UniProt P48736); assay: Fluorescence polarization assay for PI3K; assay type: biochemical; details: read-out: PI3 Kinase γ IC50
T2 construct: PI3 Kinase γ IC50; other: PI3 Kinase γ; other: PI3 Kinase γ isoform, fluorescence polarization
T2 sequence (P48736 whole entry, canonical isoform): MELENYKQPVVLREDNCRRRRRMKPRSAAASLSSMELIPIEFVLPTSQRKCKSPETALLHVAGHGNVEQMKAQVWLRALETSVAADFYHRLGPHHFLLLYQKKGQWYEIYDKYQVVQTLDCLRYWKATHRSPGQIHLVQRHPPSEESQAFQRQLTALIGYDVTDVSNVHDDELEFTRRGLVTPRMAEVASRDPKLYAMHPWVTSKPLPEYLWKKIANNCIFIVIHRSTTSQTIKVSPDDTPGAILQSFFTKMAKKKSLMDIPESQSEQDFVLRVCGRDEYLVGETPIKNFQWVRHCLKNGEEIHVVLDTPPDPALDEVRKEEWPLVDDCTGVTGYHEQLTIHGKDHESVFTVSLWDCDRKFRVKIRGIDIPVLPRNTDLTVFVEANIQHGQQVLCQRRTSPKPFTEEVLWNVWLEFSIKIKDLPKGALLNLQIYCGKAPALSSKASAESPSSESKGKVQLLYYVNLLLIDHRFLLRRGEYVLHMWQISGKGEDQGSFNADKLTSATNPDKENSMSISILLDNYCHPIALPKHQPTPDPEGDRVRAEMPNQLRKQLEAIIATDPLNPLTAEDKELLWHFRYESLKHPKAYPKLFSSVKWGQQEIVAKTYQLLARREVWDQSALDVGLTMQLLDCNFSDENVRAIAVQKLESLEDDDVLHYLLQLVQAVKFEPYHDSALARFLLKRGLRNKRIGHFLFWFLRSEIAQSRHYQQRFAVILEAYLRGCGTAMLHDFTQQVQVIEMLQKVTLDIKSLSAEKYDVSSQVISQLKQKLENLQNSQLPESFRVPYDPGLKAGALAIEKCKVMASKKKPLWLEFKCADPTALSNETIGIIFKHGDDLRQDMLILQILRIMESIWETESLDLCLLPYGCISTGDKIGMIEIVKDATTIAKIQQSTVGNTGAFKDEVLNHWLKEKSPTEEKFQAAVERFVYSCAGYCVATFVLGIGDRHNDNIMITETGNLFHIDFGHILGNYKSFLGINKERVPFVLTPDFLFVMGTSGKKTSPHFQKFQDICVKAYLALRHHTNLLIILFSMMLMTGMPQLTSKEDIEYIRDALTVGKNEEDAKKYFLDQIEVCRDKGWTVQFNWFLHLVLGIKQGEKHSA
Description: (§1) This assay is used to determine the IC50 of compounds of the present invention as it identifies inhibitors of PI3 kinase by measuring inhibition.
(§2) The assay is run by placing 5 μL of diluted enzyme per well, then 5 μL of diluted compound (or 9.5 μL enzyme then 0.5 μL compound in DMSO) is added and mixed. Then, 10 μL substrate is added to start the reaction. The samples are incubated 30-60 minutes, then the reaction is stopped by adding 20 μL stop/detector mix. PI3K is diluted with reaction buffer (e.g., 5 μL or 7.5 μL PI3K into 620 μL reaction buffer), and 5 μL of diluted enzyme is used per well. 5 μL reaction buffer or drug diluted in buffer (e.g., 4 μL/100 so final DMSO is 1% in reaction) is added to each. Pipetting up and down mixes the samples. Alternatively, the enzyme can be diluted to 1215 μL. In this case 9.8 μL is added per well and 0.2 μL compound is added in DMSO. To prepare 1 mL of substrate solution, 955 μL reaction buffer, 40 μL PIP2, and 2.5 μL ATP are mixed. 10 μL of substrate is added to each well to start the reaction.
(§3) Stop/detector mix is prepared by mixing 4 μL Red detector and 1.6 μL or 2.0 μL GST-GRP with 1 mL Stop buffer, which results in 10 nM probe and 70 nM GST-GRP). 20 μL of the stop/detector mix is added to each well to stop the reaction. The plates are read after 30-90 minutes keeping the red probe solutions dark. For the zero time point, stop/detector mix is added to the enzyme just before adding substrate. For an extra control, stop/detector mix is added to buffer (no enzyme) and substrate or to just buffer (no substrate). […] Plates are read on machines with filters for Tamra. The units are mP with no enzyme controls reading app 190-220 mP units. Fully active enzyme reduces fluorescence polarization down to 70-100 mP after 30 minutes.

PI3K [2] = target: T3, PI3K (Homo sapiens, UniProt P42336); assay: Fluorescence polarization assay for PI3K; assay type: biochemical; details: read-out: PI3 Kinase α IC50
T3 construct: PI3 Kinase α IC50; other: PI3 Kinase α; other: PI3 Kinase α isoform, fluorescence polarization
T3 sequence (P42336 whole entry, canonical isoform): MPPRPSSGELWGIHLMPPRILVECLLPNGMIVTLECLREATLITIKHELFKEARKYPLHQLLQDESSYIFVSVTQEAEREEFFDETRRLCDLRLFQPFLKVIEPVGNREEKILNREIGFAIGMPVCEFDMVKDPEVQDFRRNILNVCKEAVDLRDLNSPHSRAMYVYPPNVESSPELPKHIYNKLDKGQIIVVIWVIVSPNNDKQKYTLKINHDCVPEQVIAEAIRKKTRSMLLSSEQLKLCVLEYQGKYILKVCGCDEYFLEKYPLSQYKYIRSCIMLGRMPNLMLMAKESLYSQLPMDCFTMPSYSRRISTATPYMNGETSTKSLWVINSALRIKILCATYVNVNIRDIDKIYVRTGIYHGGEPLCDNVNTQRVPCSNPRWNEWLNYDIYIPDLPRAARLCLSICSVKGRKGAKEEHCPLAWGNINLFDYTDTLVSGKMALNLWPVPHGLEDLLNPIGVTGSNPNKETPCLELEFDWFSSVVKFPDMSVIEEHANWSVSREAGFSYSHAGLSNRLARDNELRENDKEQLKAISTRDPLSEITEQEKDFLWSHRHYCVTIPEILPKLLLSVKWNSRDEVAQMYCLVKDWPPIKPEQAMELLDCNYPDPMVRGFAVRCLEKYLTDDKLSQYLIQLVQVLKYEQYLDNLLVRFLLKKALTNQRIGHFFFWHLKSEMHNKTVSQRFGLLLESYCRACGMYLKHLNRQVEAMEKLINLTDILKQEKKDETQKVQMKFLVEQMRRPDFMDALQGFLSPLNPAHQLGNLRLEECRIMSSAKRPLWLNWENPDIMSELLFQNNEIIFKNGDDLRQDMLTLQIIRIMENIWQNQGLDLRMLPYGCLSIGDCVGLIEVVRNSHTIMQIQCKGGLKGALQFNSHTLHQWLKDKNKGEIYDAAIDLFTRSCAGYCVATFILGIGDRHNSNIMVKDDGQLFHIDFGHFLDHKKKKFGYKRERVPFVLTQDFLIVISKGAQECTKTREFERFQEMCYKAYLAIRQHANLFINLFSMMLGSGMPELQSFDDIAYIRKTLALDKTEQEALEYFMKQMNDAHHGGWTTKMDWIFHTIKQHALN
Description: as §1, §2, §3

breast line MDA468 = assay: In vitro cell culture growth assay (MTS), MDA468; assay type: cell-based; details: Homo sapiens, 72 h, MDA468 cells, three days after drug treatment
Description: Human tumor cell lines used include prostate lines LNCap and PC3MM2, breast lines MDA468, MCF7, renal line HTB44 (A498), colon line HCT116, and ovarian line OVCAR3. Cells were plated in 96-well culture plates. One day following plating, the inhibitors were added to cells. Three days after drug treatment, viable cell densities were determined by metabolic conversion (by viable cells) of the dye MTS, a well-established cell proliferation assay. The assays were performed using an assay kit purchased from Promega Corp. (Madison, Wis.) following the protocol supplied with the kit. The MTS assay results were read in a 96-well plate reader by measuring absorbance at 490 nm. The effect of each treatment was calculated as percent of control growth relative to the vehicle-treated cells grown in the same culture plate.

[3] = purified human mTOR enzyme, DELFIA format
[4] = PI3 Kinase γ isoform, fluorescence polarization
[5] = PI3 Kinase α isoform, fluorescence polarization

Row | Compound | IC50 (Human mTOR (FLAG-TOR)) [nM] | IC50 (PI3K [1]; PI3 Kinase γ) [nM] | IC50 (PI3K [2]; PI3 Kinase α) [nM] | IC50 (Human mTOR (FLAG-TOR); [3]) [nM] | IC50 (PI3K [1]; [4]) [nM] | IC50 (PI3K [2]; [5]) [nM] | IC50 (breast line MDA468) [nM]
1 | CC(C)C(=O)N1CCC(n2ncc3c(N4CC5CCC(C4)O5)nc(-c4ccc(N)cc4)nc32)CC1 [Example 80, 4-[1-(1-isobutyrylpiperidin-4-yl)-4-(8-oxa-3-azabicyclo[3.2.1]oct-3-yl)-1H-pyrazolo[3,4-d]pyrimidin-6-yl]aniline] | 100 | > 10000 | > 10000 | – | – | – | –
2 | CNC(=O)Nc1ccc(-c2nc(N3CC4CCC(C3)O4)c3cnn(C4CCC(N5CCN(C)CC5)CC4)c3n2)cc1 (centres unmarked) [Example 329, 1-methyl-3-(4-{1-[4-(4-methylpiperazin-1-yl)cyclohexyl]-4-(8-oxa-3-azabicyclo[3.2.1]oct-3-yl)-1H-pyrazolo[3,4-d]pyrimidin-6-yl}phenyl)urea] | – | – | – | 1.75 | 4350 | 357 | –
3 | Oc1ccc(-c2nc(N3CC4CCC(C3)O4)c3sccc3n2)cc1 [Example 418, 4-[4-(8-oxa-3-azabicyclo[3.2.1]oct-3-yl)thieno[3,2-d]pyrimidin-2-yl]phenol] | – | – | – | 34 | > 10000 | 6270 | 17000
4 | CNC(=O)Nc1ccc(-c2nc(N3CC4CCC(C3)O4)c3cnn(C4CCC(O)CC4)c3n2)cc1 (centres unmarked) [Example 108, 1-(4-(4-(8-oxa-3-azabicyclo[3.2.1]octan-3-yl)-1-((1r,4r)-4-hydroxycyclohexyl)-1H-pyrazolo[3,4-d]pyrimidin-6-yl)phenyl)-3-methylurea] | 0.24 | > 10000 | 882 | – | – | – | –
5 | CNC(=O)Nc1ccc(-c2nc(N3CC4CCC(C3)O4)c3sc(CN4CCN(C)CC4)cc3n2)cc1 [Example 423, 1-methyl-3-(4-{6-[(4-methylpiperazin-1-yl)methyl]-4-(8-oxa-3-azabicyclo[3.2.1]oct-3-yl)thieno[3,2-d]pyrimidin-2-yl}phenyl)urea] | – | – | – | 19.5 | 5720 | 322 | 1000
6 | O=C(Nc1ccncc1)Nc1ccc(-c2nc(N3CC4CCC(C3)O4)c3cnn(CC(F)(F)F)c3n2)cc1 [Example 104, 1-{4-[4-(8-oxa-3-azabicyclo[3.2.1]oct-3-yl)-1-(2,2,2-trifluoroethyl)-1H-pyrazolo[3,4-d]pyrimidin-6-yl]phenyl}-3-pyridin-4-ylurea] | 0.16 | 695 | 201 | – | – | – | –
7 | N-{4-[({4-[1-methyl-4-(8-oxa-3-azabicyclo[3.2.1]oct-3-yl)-1H-pyrazolo[3,4-d]pyrimidin-6-yl]phenyl}carbamoyl)amino]phenyl}acetamide [Example 259] | 2.4 | 2720 | 1050 | – | – | – | –
8 | CNC(=O)Nc1ccc(-c2nc(N3CC4CCC(C3)O4)c3cnn([C@H]4CC[C@@H](O)CC4)c3n2)cc1 [Example 109, 1-(4-(4-(8-oxa-3-azabicyclo[3.2.1]octan-3-yl)-1-((1s,4s)-4-hydroxycyclohexyl)-1H-pyrazolo[3,4-d]pyrimidin-6-yl)phenyl)-3-methylurea] | 0.3 | > 10000 | 227 | – | – | – | –
9 | CNC(=O)Nc1ccc(-c2nc(N3CC4CCC(C3)O4)c3cnn(C4CCC5(CC4)OCCO5)c3n2)cc1 [Example 62, 1-{4-[1-(1,4-dioxaspiro[4.5]dec-8-yl)-4-(8-oxa-3-azabicyclo[3.2.1]oct-3-yl)-1H-pyrazolo[3,4-d]pyrimidin-6-yl]phenyl}-3-methylurea] | 0.16 | > 10000 | 2010 | – | – | – | –
10 | O=C(NCCO)Nc1ccc(-c2nc(N3CC4CCC(C3)O4)c3sccc3n2)cc1 [Example 409, 1-(2-hydroxyethyl)-3-{4-[4-(8-oxa-3-azabicyclo[3.2.1]oct-3-yl)thieno[3,2-d]pyrimidin-2-yl]phenyl}urea] | – | – | – | 0.31 | ≥ 10000 | 324 | 475
11 | CCNC(=O)Nc1ccc(-c2nc(N3CC4CCC(C3)O4)c3cnn(C4CCC(OC)CC4)c3n2)cc1 (centres unmarked) [Example 301, 1-ethyl-3-{4-[1-(4-methoxycyclohexyl)-4-(8-oxa-3-azabicyclo[3.2.1]oct-3-yl)-1H-pyrazolo[3,4-d]pyrimidin-6-yl]phenyl}urea] | – | – | – | 0.335 | > 10000 | 2030 | –
12 | Oc1cccc(-c2nc(N3CC4CCC(C3)O4)c3sccc3n2)c1 [Example 417, 3-[4-(8-oxa-3-azabicyclo[3.2.1]oct-3-yl)thieno[3,2-d]pyrimidin-2-yl]phenol] | – | – | – | 61 | > 10000 | 399 | 7800
13 | O=C(Nc1ccccc1)Nc1ccc(-c2nc(N3CC4CCC(C3)O4)c3sccc3n2)cc1 [Example 411, 1-{4-[4-(8-oxa-3-azabicyclo[3.2.1]oct-3-yl)thieno[3,2-d]pyrimidin-2-yl]phenyl}-3-phenylurea] | – | – | – | 1.3 | 2190 | 82 | 380
14 | CNC(=O)Nc1ccc(-c2nc(N3CC4CCC(C3)O4)c3cnn(C4CCC(=O)CC4)c3n2)cc1 [Example 63, 1-methyl-3-{4-[4-(8-oxa-3-azabicyclo[3.2.1]oct-3-yl)-1-(4-oxocyclohexyl)-1H-pyrazolo[3,4-d]pyrimidin-6-yl]phenyl}urea] | 0.23 | > 10000 | – | – | – | – | –
15 | CCNC(=O)Nc1ccc(-c2nc(N3CC4CCC(C3)O4)c3sccc3n2)cc1 [Example 407, 1-ethyl-3-{4-[4-(8-oxa-3-azabicyclo[3.2.1]oct-3-yl)thieno[3,2-d]pyrimidin-2-yl]phenyl}urea] | – | – | – | 0.76 | > 10000 | 1260 | 250
16 | O=C(Nc1ccncc1)Nc1ccc(-c2nc(N3CC4CCC(C3)O4)c3cnn(CC(F)(F)F)c3n2)cc1 [Example 5, 1-{4-[4-(8-oxa-3-azabicyclo[3.2.1]oct-3-yl)-1-(2,2,2-trifluoroethyl)-1H-pyrazolo[3,4-d]pyrimidin-6-yl]phenyl}-3-pyridin-4-ylurea] | 0.19 | 1030 | 168 | – | – | – | –
17 | Nc1ccc(-c2nc(N3CC4CCC(C3)O4)c3sccc3n2)cc1 [Example 414, 4-[4-(8-oxa-3-azabicyclo[3.2.1]oct-3-yl)thieno[3,2-d]pyrimidin-2-yl]aniline] | – | – | – | 100 | > 10000 | – | 30000
18 | CNC(=O)Nc1ccc(-c2nc(N3CC4CCC(C3)O4)c3cnn(C4CCC(O)CC4)c3n2)cc1 (centres unmarked) [Example 64, 1-{4-[1-(4-hydroxycyclohexyl)-4-(8-oxa-3-azabicyclo[3.2.1]oct-3-yl)-1H-pyrazolo[3,4-d]pyrimidin-6-yl]phenyl}-3-methylurea] | 0.21 | 5000 | 1310 | – | – | – | –
19 | N~2~,N~2~-dimethyl-N-{4-[({4-[1-methyl-4-(8-oxa-3-azabicyclo[3.2.1]oct-3-yl)-1H-pyrazolo[3,4-d]pyrimidin-6-yl]phenyl}carbamoyl)amino]phenyl}glycinamide [Example 258] | 3.95 | 1410 | 346 | – | – | – | –

Reference: patent US8129371B2, “Thienopyrimidine and pyrazolopyrimidine compounds and their use as mTOR kinase and PI3 kinase inhibitors” (Wyeth LLC, priority 2007, dated 2012)
